Read-outs that look alike come from different tables or passages of the source.
Key:
[1] = biological target: BTK (Homo sapiens (Human), UniProt Q06187); assay: In Vitro BTK Kinase Assay: Btk-PolyGAT-LS Assay; type: biochemical; details: BTK enzyme 0.25 nM, ATP 10 μM, polyGAT 100 nM, 30 minutes incubation, TRF readout; read-out: IC50
Procedure, shortened: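 Human BTK activity was measured with final 10 μM ATP and 100 nM polyGAT substrate in pH 7.5 Tris buffer with 10 mM MgCl2, DTT, Triton X-100 and casein.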

[2] = system: CD69 expression on CD19+ B cells in human whole blood stimulated with anti-human IgD; assay: In Vitro whole blood CD69 Assay; type: cell-based
[3] = Homo sapiens, B-cell, human heparinized whole blood, anti-human IgD stimulation overnight, percentage of CD19+ B cells expressing CD69, flow cytometry, read-out: IC50
[4] = human heparinized whole blood, anti-human IgD stimulation overnight, percentage of CD19+ B cells expressing CD69, flow cytometry, read-out: IC50
[5] = Homo sapiens, B-cell, human heparinized whole blood, anti-human IgD stimulation overnight, percentage of CD19+ B cells expressing CD69, flow cytometry

Chain of BTK (Q06187 whole entry): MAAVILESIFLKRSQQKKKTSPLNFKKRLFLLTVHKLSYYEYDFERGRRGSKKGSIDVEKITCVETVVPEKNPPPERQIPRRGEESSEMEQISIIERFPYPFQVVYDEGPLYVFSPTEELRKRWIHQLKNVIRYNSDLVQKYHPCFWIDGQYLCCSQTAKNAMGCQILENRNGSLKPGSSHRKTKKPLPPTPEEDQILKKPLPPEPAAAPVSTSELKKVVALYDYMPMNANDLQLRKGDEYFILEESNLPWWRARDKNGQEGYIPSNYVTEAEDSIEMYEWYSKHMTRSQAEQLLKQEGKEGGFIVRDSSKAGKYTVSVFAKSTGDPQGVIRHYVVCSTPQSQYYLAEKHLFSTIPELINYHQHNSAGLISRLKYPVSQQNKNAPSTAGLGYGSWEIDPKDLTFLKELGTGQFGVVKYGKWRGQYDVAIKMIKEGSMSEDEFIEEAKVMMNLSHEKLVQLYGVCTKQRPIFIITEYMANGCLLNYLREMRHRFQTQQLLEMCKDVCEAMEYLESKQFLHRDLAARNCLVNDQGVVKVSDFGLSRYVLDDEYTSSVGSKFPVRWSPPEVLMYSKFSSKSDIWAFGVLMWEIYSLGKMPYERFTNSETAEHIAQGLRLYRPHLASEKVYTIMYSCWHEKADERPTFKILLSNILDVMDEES

Row | SMILES | IC50 [1] | IC50 [2, 3] | further results
1 | C=CC(=O)N(C)[C@@H]1COC[C@H](Oc2nc(-c3cnn(C)c3)cn3nccc23)C1 (racemic) [Example 96, N-methyl-N-((cis)-5-((6-(1-methyl-1H-pyrazol-4-yl)pyrazolo[1,5-a]pyrazin-4-yl)oxy)tetrahydro-2H-pyran-3-yl)acrylamide] | < 1 nM | < 1000 nM | –
2 | CC#CC(=O)N(C)[C@@H]1C[C@@H]2C[C@H]1[C@@H](Oc1nc(-c3cnn(C)c3)cn3nccc13)C2 (racemic) [Example 123, N-methyl-N-((1S,2S,4R,6R)-6-((6-(1-methyl-1H-pyrazol-4-yl)pyrazolo[1,5-a]pyrazin-4-yl)oxy)bicyclo[2.2.1]heptan-2-yl)but-2-ynamide and N-methyl-N-((1R,2R,4S,6S)-6-((6-(1-methyl-1H-pyrazol-4-y)pyrazolo[1,5-a]pyrazin-4-yl)oxy)bicyclo[2.2.1]heptan-2-y)but-2-ynamide] | 1 to 10 nM | – | IC50 [2, 4]: 1000 to 10000 nM
3 | CN[C@H]1C[C@@](C)(Oc2nc(-c3cnn(C)c3)cn3nccc23)C1(C)C (racemic) [Example 139, racemic (1S,3R)—N,2,2,3-tetramethyl-3-((6-(1-methyl-1H-pyrazol-4-yl)pyrazolo[1,5-a]pyrazin-4-yl)oxy)cyclobutan-1-amine] | < 1 nM | – | IC50 [2, 4]: < 1000 nM
4 | CN(C(=O)/C=C/C#N)[C@H]1CC[C@@H](Oc2nc(-c3cnn(C)c3)cn3nccc23)C1 (racemic) [Example 150, rac-(E)-3-cyano-N-methyl-N-((1R,3S)-3-((6-(1-methyl-1H-pyrazol-4-yl)pyrazolo[1,5-a]pyrazin-4-yl)oxy)cyclopentyl)acrylamide] | < 1 nM | < 1000 nM | –
5 | C=CC(=O)N(C)[C@H]1CC[C@@H]1COc1nc(-c2cnn(C)c2)cn2nccc12 (relative stereo) [Example 129, trans-N-methyl-N-(2-(((6-(1-methyl-1H-pyrazol-4-yl)pyrazolo[1,5-a]pyrazin-4-yl)oxy)methyl)cyclobutyl)acrylamide] | 10 to 1000 nM | 1000 to 10000 nM | –
6 | C#CC(=O)NCC1CCCCN1c1nc(-c2cnn(C)c2)cn2nccc12 (single isomer, unassigned) [Example 26 E1, N-[[1-[6-(1-methylpyrazol-4-yl)pyrazolo[1,5-a]pyrazin-4-yl]-2-piperidyl]methyl]prop-2-ynamide] | 10 to 1000 nM | – | IC50 ([2]; human heparinized whole blood, anti-human IgD stimulation overnight, percentage of CD19+ B cells expressing CD69, flow cytometry, listed as 26 E1, read-out: IC50): > 10000 nM
7 | C#CC(=O)NCC1CCCCN1c1nc(-c2cnn(C)c2)cn2nccc12 (single isomer, unassigned) [Example 26 E2, N-[[1-[6-(1-methylpyrazol-4-yl)pyrazolo[1,5-a]pyrazin-4-yl]-2-piperidyl]methyl]prop-2-ynamide] | < 1 nM | – | IC50 ([2]; human heparinized whole blood, anti-human IgD stimulation overnight, percentage of CD19+ B cells expressing CD69, flow cytometry, listed as 26 E2, read-out: IC50): < 1000 nM
8 | C=CC(=O)N1CCC[C@@H](Oc2nc(-c3cnn(C)c3)cc3nccn23)CC1 (single isomer, unassigned) [Example 34, (S) or (R)-1-(4-((7-(1-methyl-1H-pyrazol-4-yl)imidazo[1,2-c]pyrimidin-5-yl)oxy)azepan-1-yl)prop-2-en-1-one] | 1 to 10 nM | < 1000 nM | –
9 | C=CC(=O)N1CCC[C@H](Oc2nc(-c3ccc(=O)n(C)c3)cn3nccc23)CC1 (single isomer, unassigned) [Example 71 E1] | 1 to 10 nM | < 1000 nM | –
10 | C=CC(=O)N1CCC[C@@H](Oc2nc(-c3ccc(=O)n(C)c3)cn3nccc23)CC1 (single isomer, unassigned) [Example 71 E2] | 10 to 1000 nM | 1000 to 10000 nM | –
11 | C=CC(=O)N1CCCC(Oc2nc(-c3ccnc(OC)c3)cn3nccc23)CC1 (single isomer, unassigned) [Example 72 E1, 1-(4-((6-(2-methoxypyridin-4-yl)pyrazolo[1,5-a]pyrazin-4-yl)oxy)azepan-1-yl)prop-2-en-1-one] | < 1 nM | 1000 to 10000 nM | –
12 | C=CC(=O)N1C[C@H]2C[C@@H](C1)[C@@H]2COc1cc(-c2cnn(C)c2)cn2ncc(F)c12 (single isomer, unassigned) [Example 85, 1-((1R,5S,6r) or (1R,5S,6s)-6-(((3-fluoro-6-(1-methyl-1H-pyrazol-4-yl)pyrazolo[1,5-a]pyridin-4-yl)oxy)methyl)-3-azabicyclo[3.1.1]heptan-3-yl)prop-2-en-1-one] | < 1 nM | – | IC50 [2, 4]: < 1000 nM
13 | C=CC(=O)N(C)[C@@H]1C[C@@](C)(Oc2nc(-c3cnn(C)c3)cn3nccc23)[C@@H]1C (single isomer, unassigned) [Example 107] | 1 to 10 nM | < 1000 nM | –
14 | C=CC(=O)N(C)[C@@H]1C[C@@](C)(Oc2nc(-c3cnn(C)c3)cn3nccc23)[C@H]1C (single isomer, unassigned) [Example 108] | < 1 nM | – | IC50 [2, 5]: < 1000 nM
15 | C=CC(=O)N(C)[C@H]1C[C@](C)(Oc2nc(-c3cnn(C)c3)cn3nccc23)[C@@H]1C (single isomer, unassigned) [Example 109] | 1 to 10 nM | – | IC50 [2, 5]: < 1000 nM
16 | C=CC(=O)N(C)[C@H]1C[C@@](C)(Oc2nc(-c3cnn(C)c3)cn3nccc23)[C@H]1C (single isomer, unassigned) [Example 110] | < 1 nM | – | IC50 [2, 5]: < 1000 nM
17 | C=CC(=O)N1CCC[C@H]2[C@@H]1C[C@@]2(C)Oc1nc(-c2cnn(C)c2)cn2nccc12 (single isomer, unassigned) [Example 111] | < 1 nM | < 1000 nM | –
18 | CC#CC(=O)N(C)[C@H]1CC[C@@H]2C[C@]2(Oc2nc(-c3cnn(C)c3)cn3nccc23)C1 (single isomer, unassigned) [Example 113] | 1 to 10 nM | 1000 to 10000 nM | –
19 | CC#CC(=O)N(C)[C@@H]1CC[C@H]2C[C@@]2(Oc2nc(-c3cnn(C)c3)cn3nccc23)C1 (single isomer, unassigned) [Example 115] | 1 to 10 nM | 1000 to 10000 nM | –
20 | CC#CC(=O)N(C)[C@H]1CC[C@H]2C[C@@]2(Oc2nc(-c3cnn(C)c3)cn3nccc23)C1 (single isomer, unassigned) [Example 116] | < 1 nM | < 1000 nM | –
21 | C=CC(=O)N1CCO[C@](C)(COc2nc(-c3cnn(C)c3)cn3nccc23)C1 (single isomer, unassigned) [Example 117, (S) or (R)-1-(2-methyl-2-(((6-(1-methyl-1H-pyrazol-4-yl)pyrazolo[1,5-a]pyrazin-4-yl)oxy)methyl)morpholino)prop-2-en-1-one] | 1 to 10 nM | < 1000 nM | –
22 | C=CC(=O)N1CCO[C@@](C)(COc2nc(-c3cnn(C)c3)cn3nccc23)C1 (single isomer, unassigned) [Example 118, (R) or (S)-1-(2-methyl-2-(((6-(1-methyl-1H-pyrazol-4-yl)pyrazolo[1,5-a]pyrazin-4-yl)oxy)methyl)morpholino)prop-2-en-1-one] | < 1 nM | < 1000 nM | –
23 | C=CC(=O)N1CC(C)(C)OC(C)(COc2nc(-c3cnn(C)c3)cn3nccc23)C1 (single isomer, unassigned) [Example 120, 1-(2,2,6-trimethyl-6-(((6-(1-methyl-1H-pyrazol-4-yl)pyrazolo[1,5-a]pyrazin-4-yl)oxy)methyl)morpholino)prop-2-en-1-one] | < 1 nM | < 1000 nM | –
24 | C=CC(=O)N1C[C@H]2C[C@](C)(Oc3nc(-c4cnn(C)c4)cn4nccc34)[C@H]2C1 [Example 200, 1-((1S,5R,6S)-6-methyl-6-((6-(1-methyl-1H-pyrazol-4-yl)pyrazolo[1,5-a]pyrazin-4-yl)oxy)-3-azabicyclo[3.2.0]heptan-3-yl)prop-2-en-1-one] | – | < 1000 nM | –
25 | C=CC(=O)N1C[C@@H]2[C@@H](COc3nc(-c4cnn(C)c4)cn4nccc34)[C@@H]2C1 [Example 214, 1-((1R,5S,6r)-6-(((6-(1-methyl-1H-pyrazol-4-yl)pyrazolo[1,5-a]pyrazin-4-yl)oxy)methyl)-3-azabicyclo[3.1.0]hexan-3-yl)prop-2-en-1-one] | – | < 1000 nM | –
26 | C=CC(=O)N(C)[C@H]1C[C@@H](Oc2nc(-c3cnn(C)c3)cn3nccc23)C1 [Example 215, N-methyl-N-((cis)-3-((6-(1-methyl-1H-pyrazol-4-yl)pyrazolo[1,5-a]pyrazin-4-yl)oxy)cyclobutyl)acrylamide] | – | 1000 to 10000 nM | –
27 | C=CC(=O)N(C)[C@H]1C[C@](C)(Oc2nc(-c3cnn(C)c3)cn3nccc23)C1 [Example 217, N-methyl-N-((1r,3r)-3-methyl-3-((6-(1-methyl-1H-pyrazol-4-yl)pyrazolo[1,5-a]pyrazin-4-yl)oxy)cyclobutyl)acrylamide] | – | – | IC50 ([2]; Homo sapiens, B-cell): 1000 to 10000 nM
28 | C=CC(=O)N1C[C@@H]2[C@H](COc3nc(-c4cnn(C)c4)cn4nccc34)[C@@H]2C1 [Example 221, 1-((1R,5S,6s)-6-(((6-(1-methyl-1H-pyrazol-4-yl)pyrazolo[1,5-a]pyrazin-4-yl)oxy)methyl)-3-azabicyclo[3.1.0]hexan-3-yl)prop-2-en-1-one] | – | 1000 to 10000 nM | –
29 | C=CC(=O)N(C)C12CCCC(Oc3nc(-c4cnn(C)c4)cn4nccc34)(C1)C2 [Example 225, N-methyl-N-(5-((6-(1-methyl-1H-pyrazol-4-yl)pyrazolo[1,5-a]pyrazin-4-yl)oxy)bicyclo[3.1.1]heptan-1-yl)acrylamide] | – | < 1000 nM | –
30 | C=CC(=O)N(C)[C@H]1C[C@@](C)(Oc2nc(-c3cnn(C)c3)cc3nccn23)C1 [Example 236, N-methyl-N-((1s,3s)-3-methyl-3-((7-(1-methyl-1H-pyrazol-4-yl)imidazo[1,2-c]pyrimidin-5-yl)oxy)cyclobutyl)acrylamide] | – | – | IC50 ([2]; Homo sapiens, B-cell): < 1000 nM
